Measured values taken from patent publication US7648978B2, “Small molecule modulators of cytokine activity” (Angion Biomedica Corp., priority 2004, dated 2010).

Assays:
Format in all cases: cell-based
[1] = tested on: Endothelial cells (HUVECs); experiment: HUVEC proliferation (3H-thymidine incorporation); conditions: Homo sapiens, Table 1, read-out: HUVEC ED50
Experimental: (§1) a. Proliferation. The following assay was performed to assess the activity of the compounds of the invention in cell proliferation. Endothelial cells (HUVECs) were seeded in 96-well plates at a density of 10,000 cells per well in the normal growth medium (EGM-2-Clonetics) containing 2% fetal bovine serum, FGF, VEGF, IGF, ascorbic acid, EGF, GA, heparin and hydrocortisone. The cells were grown normally in the growth medium for 24 hr at 37° C. and 5% CO2. The cells were then rinsed with RPMI-1% BSA and starved for 1-2 hr. The stock solutions of the compounds of the invention were made at a concentration of 10 mg/ml in DMSO and diluted in RPMI-1% BSA at final concentrations of 0.001 uM to 50 uM. The cells were then washed and treated with the compounds and incubated for another 20 hr at 37° C. Then ^3H thymidine (0.5 microgram/ml in RPMI-BSA) was added to the cells and incubated at 37° C. for 4 hr. The unincorporated thymidine was removed by washing the cells four times with 1×PBS. Then the cells were lysed with 0.5M NaOH for 30 min and the radioactivity counted in the beta counter. A similar proliferation assay using monkey bronchial epithelial cells (4MBR-5) and oligodendrocyte cells was also employed.

oligodendrocytes = experiment: Oligodendrocyte proliferation; conditions: Mus musculus, Table 2, read-out: Oligodendrocyte ED50
Experimental: as §1
e. Stimulation of Oligodendrocyte Proliferation. Mouse primary oligodendrocytes (Celprogen, Calif.) were seeded in 96-well plates at 5000 cells/well in serum-free medium for 16 hours. Cells were treated with test compound or HGF/SF (positive control) for 16-24 hours. WST1 cell proliferation reagent (Roche, N.J.) was added to oligodendrocytes, and incubation was continued for another 4-5 hours. Cells with WST1 reagent were read using a plate reader at an OD of 490 nm.

monocytes / HUVECs = experiment: Monocyte migration and binding to CRP-treated HUVECs; VCAM-1 and MCP-1 expression; conditions: CRP 25 ug/ml, test compound 10 uM or HGF 50 ng/ml
Experimental: a. Compound treatment decreases monocyte migration and binding to ECs. […] HUVECs were incubated with CRP (25 ug/ml), CRP together with test compound (10 uM) or HGF (50 ng/ml). The cellular extracts with lysis buffer and analyzed for VCAM-1 and MCP-1 expression via Western blot analysis. For Monocyte binding and migration experiments, monocytes were labeled with a fluorescent dye Vybrant Did (Molecular Probes) and treated to the HUVECs treated as above.

CC1CCCCN1c1ccc(-c2n[nH]c(=O)c3ccccc23)cc1[N+](=O)[O-] (stereo not shown)
EC50 [1]: 2000 nM

CCC1CCCCN1c1ccc(-c2n[nH]c(=O)c3ccccc23)cc1[N+](=O)[O-] (stereo not shown)
EC50 [1]: 3000 nM

CCCC1CCN(c2ccc(-c3n[nH]c(=O)c4ccccc34)cc2[N+](=O)[O-])CC1
EC50 [1]: 4000 nM

CC1CCCN(c2ccc(-c3n[nH]c(=O)c4ccccc34)cc2[N+](=O)[O-])C1 (stereo not shown)
EC50 [1]: 3000 nM

O=c1[nH]nc(-c2ccc(N3CCCCCC3)c([N+](=O)[O-])c2)c2ccccc12 [drawing 50]
EC50 [1]: 2500 nM

O=c1[nH]nc(-c2ccc(N3CCCCC3)c([N+](=O)[O-])c2)c2ccccc12 [drawing 51]
EC50 [1]: 10000 nM

CC1CCN(c2ccc(-c3n[nH]c(=O)c4ccccc34)cc2[N+](=O)[O-])CC1 [drawing 52]
EC50 [1]: 5000 nM

O=c1[nH]nc(-c2ccc(N3CCCCCC3)c([N+](=O)[O-])c2)c2ccccc12 [drawing 57]
EC50 (oligodendrocytes): 200 nM

O=c1[nH]nc(-c2ccc(N3CCCCC3)c([N+](=O)[O-])c2)c2ccccc12 [drawing 58]
EC50 (oligodendrocytes): 200 nM

CC1CCN(c2ccc(-c3n[nH]c(=O)c4ccccc34)cc2[N+](=O)[O-])CC1 [drawing 59]
EC50 (oligodendrocytes): 200 nM

HGF: Scatter factor / hepatocyte growth factor, a pleiotropic growth factor; used as positive control
monocyte migration and binding to endothelial cells (monocytes / HUVECs; FIG. 17): decreased
MCP-1 expression (monocytes / HUVECs; Western blot): decreased
VCAM-1 expression (monocytes / HUVECs; Western blot): decreased
